Calls of active or inactive are those of the source.
Tests used:
[1] = target: T1, Corticotropin-releasing factor receptor 2/Corticotropin-releasing factor-binding protein (Homo sapiens, UniProt P24387+Q13324); assay: Dose Response confirmation of uHTS hits for small molecule antagonists of the CRF-binding protein and CRF-R2 receptor complex.; format: functional; conditions: read-out: IC50_Mean
T1 sequence (Q13324 whole entry): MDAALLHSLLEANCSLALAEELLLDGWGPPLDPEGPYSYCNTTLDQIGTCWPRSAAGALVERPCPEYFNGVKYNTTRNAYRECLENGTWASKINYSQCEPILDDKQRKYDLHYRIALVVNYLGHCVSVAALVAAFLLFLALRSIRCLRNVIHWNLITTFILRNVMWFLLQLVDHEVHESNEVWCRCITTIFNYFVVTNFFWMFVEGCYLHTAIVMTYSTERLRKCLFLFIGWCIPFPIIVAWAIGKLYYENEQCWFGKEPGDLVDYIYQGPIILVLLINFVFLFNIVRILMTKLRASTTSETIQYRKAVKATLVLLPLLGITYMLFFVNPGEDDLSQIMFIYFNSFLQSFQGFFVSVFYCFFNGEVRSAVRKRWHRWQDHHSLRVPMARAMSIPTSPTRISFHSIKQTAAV
T1 sequence (P24387 whole entry): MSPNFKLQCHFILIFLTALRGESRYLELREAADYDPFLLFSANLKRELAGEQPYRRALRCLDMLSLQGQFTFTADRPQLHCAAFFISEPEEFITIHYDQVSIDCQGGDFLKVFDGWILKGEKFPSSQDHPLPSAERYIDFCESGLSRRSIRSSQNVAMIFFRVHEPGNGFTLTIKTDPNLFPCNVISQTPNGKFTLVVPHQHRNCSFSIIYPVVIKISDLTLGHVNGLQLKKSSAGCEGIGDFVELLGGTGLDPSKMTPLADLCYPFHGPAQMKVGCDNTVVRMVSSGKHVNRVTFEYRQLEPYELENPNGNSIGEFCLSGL

[2] = target: T1, Corticotropin-releasing factor receptor 2/Corticotropin-releasing factor-binding protein; assay: activators of CRF receptor 2 with binding protein – uHTS hits, confirmation (AID 602473); format: functional; conditions: read-out: EC50_Mean
[3] = blockers of CRF-binding protein–CRF-R2 complex – cell-based, uHTS hits, 384-well, dose response (AID 651639); format: functional, Homo sapiens; conditions: read-out: IC50_Mean
Fatty acid synthase [4] = target: T2, Fatty acid synthase (Homo sapiens, UniProt P49327); assay: inhibition of human FAS-TE enzyme activity – biochemical, endpoint fluorescence intensity, uHTS hits, dose response (AID 624327); format: functional;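 further: fluorescence from hydrolysis of an O-methyl fluorescein acyl ester substrate by the enzyme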
T2 sequence (P49327 whole entry): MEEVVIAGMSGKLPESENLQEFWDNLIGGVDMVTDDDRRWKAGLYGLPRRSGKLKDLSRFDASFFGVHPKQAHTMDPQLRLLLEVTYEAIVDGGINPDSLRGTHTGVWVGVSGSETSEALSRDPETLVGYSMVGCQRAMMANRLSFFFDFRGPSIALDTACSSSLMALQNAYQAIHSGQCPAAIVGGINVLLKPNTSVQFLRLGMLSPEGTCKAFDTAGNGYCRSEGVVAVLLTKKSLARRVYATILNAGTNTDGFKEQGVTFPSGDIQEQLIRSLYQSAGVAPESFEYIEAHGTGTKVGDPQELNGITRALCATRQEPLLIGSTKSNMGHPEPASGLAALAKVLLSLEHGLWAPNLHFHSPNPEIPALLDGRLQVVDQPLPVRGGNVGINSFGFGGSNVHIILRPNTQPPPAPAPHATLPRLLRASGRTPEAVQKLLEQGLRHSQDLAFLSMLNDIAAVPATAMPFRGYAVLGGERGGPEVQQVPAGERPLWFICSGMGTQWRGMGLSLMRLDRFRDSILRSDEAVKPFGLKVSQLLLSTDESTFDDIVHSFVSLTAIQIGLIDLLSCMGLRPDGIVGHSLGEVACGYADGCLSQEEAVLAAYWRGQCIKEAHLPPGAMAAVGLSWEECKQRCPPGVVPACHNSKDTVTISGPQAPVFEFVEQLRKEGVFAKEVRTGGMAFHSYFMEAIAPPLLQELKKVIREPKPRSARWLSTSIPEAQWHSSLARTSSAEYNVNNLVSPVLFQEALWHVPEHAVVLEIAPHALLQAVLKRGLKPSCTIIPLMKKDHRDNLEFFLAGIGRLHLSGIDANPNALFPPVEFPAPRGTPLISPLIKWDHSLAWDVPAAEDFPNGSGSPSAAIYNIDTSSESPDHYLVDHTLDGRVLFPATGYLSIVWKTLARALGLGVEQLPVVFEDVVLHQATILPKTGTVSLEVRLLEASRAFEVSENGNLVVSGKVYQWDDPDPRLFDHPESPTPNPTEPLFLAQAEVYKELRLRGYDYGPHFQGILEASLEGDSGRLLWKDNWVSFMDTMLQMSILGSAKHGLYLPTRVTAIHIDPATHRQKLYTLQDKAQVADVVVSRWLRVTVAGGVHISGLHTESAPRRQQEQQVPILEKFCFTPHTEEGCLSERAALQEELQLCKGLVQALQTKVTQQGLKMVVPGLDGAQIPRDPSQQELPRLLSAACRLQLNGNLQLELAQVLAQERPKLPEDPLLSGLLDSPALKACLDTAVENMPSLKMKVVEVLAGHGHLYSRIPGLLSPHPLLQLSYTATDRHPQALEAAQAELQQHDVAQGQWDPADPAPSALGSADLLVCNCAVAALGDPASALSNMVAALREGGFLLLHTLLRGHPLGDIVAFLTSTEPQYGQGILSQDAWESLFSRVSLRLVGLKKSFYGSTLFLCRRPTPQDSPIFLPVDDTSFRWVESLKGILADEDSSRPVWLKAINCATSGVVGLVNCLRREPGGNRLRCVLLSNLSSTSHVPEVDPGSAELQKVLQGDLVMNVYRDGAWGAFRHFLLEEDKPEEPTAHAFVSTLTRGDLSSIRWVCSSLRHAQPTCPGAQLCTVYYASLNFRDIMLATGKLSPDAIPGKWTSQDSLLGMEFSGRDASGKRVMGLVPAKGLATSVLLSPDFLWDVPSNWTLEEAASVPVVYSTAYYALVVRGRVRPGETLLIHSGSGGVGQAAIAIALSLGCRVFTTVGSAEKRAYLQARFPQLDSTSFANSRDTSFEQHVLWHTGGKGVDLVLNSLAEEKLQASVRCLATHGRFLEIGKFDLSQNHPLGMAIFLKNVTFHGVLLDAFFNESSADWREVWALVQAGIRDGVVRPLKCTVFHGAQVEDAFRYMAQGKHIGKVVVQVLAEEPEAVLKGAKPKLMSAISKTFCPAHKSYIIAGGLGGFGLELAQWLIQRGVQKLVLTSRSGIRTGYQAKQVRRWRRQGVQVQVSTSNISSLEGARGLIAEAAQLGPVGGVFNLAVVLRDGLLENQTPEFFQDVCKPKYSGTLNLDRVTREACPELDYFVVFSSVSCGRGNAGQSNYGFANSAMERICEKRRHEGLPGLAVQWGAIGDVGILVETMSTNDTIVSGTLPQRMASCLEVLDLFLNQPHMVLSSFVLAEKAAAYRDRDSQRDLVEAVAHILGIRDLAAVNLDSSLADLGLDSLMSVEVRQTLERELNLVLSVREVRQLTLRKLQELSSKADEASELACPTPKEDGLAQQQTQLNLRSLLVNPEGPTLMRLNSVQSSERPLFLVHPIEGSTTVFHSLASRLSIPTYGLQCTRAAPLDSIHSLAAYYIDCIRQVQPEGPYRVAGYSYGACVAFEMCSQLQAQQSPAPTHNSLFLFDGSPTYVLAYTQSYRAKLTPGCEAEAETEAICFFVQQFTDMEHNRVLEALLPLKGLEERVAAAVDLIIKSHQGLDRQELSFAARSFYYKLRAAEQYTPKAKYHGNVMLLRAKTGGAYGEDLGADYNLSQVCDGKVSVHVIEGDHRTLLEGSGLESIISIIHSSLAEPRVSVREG

Fatty acid synthase [5] = target: T2, Fatty acid synthase; assay: inhibition of human FAS-TE enzyme activity – biochemical, kinetic fluorescence intensity, dose response (AID 624326); format: functional;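 further: rate of fluorescence rise from hydrolysis of a fluorogenic O-methyl fluorescein ester substrate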
[6] = target: T3, Polyadenylate-binding protein 1 (Homo sapiens, UniProt P11940); assay: MLLE binding blockers, Cy5 peptide tracer – biochemical, fluorescence polarization, Cy5-PAM2 peptide, secondary, miRNA deadenylation inhibitor project, dose response (AID 602260); format: functional; conditions: read-out: IC50_Mean
T3 sequence (P11940 whole entry, the tested form may be a part): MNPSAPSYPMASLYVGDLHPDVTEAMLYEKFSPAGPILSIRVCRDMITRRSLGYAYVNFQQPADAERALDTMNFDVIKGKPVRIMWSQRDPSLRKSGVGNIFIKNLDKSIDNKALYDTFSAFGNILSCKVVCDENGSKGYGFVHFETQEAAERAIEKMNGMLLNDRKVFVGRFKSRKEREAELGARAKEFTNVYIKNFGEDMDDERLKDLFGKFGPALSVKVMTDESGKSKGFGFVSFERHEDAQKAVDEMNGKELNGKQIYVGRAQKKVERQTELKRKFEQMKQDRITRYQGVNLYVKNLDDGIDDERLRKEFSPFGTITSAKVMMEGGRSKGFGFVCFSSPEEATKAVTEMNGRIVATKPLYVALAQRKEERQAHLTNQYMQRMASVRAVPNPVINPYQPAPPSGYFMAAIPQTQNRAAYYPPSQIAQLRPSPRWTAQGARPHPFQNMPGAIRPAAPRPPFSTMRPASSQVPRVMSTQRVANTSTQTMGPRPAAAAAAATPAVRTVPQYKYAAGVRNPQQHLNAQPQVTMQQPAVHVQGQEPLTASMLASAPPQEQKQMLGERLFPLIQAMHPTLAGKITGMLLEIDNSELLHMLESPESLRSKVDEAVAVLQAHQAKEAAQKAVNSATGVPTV

[7] = target: T3, Polyadenylate-binding protein 1; assay: MLLE domain peptide-binding blockers, IC50 – biochemical, fluorescence polarization, FITC-PAM2 peptide, dose response (AID 602259); format: functional; conditions: read-out: IC50_Mean
[8] = viability of PTEN-deleted HCT116 cells – cell-based, HCT116 PTEN knockout, dose response (AID 1047); format: functional;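 further: HCT116 colon tumor cells with PTEN knocked out; cells exposed to compound for 60 hours before readout; potency for loss of cell viability measured by luminescence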
[9] = THP-1 cell cytotoxicity, dose response, cytotoxicity control for non-replicating M. tuberculosis project (AID 489025); format: functional
cells = format: functional
Protein skinhead-1 = target: T4, Protein skinhead-1 (Caenorhabditis elegans, UniProt P34707); format: functional
T4 sequence (P34707 whole entry): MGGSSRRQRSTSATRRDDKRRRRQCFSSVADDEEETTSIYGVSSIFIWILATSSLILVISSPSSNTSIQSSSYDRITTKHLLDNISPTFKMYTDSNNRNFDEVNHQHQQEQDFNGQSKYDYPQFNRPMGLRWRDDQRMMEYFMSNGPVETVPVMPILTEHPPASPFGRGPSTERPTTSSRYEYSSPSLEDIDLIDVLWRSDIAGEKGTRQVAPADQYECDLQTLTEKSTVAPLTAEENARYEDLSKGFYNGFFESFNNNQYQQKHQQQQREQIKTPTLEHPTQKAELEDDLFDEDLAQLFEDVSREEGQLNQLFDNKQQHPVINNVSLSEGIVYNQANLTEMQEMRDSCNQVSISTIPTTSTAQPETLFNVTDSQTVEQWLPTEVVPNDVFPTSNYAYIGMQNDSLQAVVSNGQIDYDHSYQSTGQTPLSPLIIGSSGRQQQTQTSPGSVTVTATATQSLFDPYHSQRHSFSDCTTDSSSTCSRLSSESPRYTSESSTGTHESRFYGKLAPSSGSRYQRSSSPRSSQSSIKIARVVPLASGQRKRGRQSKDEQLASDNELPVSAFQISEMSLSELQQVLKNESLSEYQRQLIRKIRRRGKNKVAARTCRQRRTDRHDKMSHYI

[10] = Luminescence Cell-Based Dose Retest to Confirm Inhibitors of Cancer Stem Cells. [Related pubchem assays (depositor defined):AID2717, AID2721]; format: functional; conditions: Homo sapiens
[11] = target: T5, Heat shock factor protein 1 (Mus musculus, UniProt P38532); assay: enhancement of HSF1-driven luciferase signal – cell-based, NIH3T3, luminescence, dose retest, confirmation (AID 435004); format: functional;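 further: stress induced by proteasome inhibitor MG132 added 30 min after compound; luciferase reporter driven by HSF1 response element in NIH3T3 cells; actives raise luminescence as potentiators of the MG132 stress response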
T5 sequence (P38532 whole entry): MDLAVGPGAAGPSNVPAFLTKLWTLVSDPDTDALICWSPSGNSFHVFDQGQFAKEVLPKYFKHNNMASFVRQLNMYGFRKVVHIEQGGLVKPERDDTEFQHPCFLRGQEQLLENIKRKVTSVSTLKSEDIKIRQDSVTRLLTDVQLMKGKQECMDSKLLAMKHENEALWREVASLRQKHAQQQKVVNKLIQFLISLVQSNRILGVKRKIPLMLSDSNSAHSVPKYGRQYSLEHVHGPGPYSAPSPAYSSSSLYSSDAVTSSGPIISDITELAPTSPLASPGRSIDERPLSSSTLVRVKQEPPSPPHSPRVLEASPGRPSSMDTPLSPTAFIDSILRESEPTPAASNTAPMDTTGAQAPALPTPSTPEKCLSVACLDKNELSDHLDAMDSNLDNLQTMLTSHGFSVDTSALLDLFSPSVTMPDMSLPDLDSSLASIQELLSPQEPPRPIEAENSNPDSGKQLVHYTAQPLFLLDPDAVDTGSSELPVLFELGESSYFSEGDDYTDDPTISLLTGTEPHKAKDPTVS

[12] = target: T6, Replicative DNA helicase DnaB (Mycobacterium tuberculosis, UniProt P9WMR3); assay: DnaB intein splicing inhibitors, dose response, biochemical, cell-free fluorescence (AID 449749); format: functional
T6 sequence (P9WMR3 whole entry): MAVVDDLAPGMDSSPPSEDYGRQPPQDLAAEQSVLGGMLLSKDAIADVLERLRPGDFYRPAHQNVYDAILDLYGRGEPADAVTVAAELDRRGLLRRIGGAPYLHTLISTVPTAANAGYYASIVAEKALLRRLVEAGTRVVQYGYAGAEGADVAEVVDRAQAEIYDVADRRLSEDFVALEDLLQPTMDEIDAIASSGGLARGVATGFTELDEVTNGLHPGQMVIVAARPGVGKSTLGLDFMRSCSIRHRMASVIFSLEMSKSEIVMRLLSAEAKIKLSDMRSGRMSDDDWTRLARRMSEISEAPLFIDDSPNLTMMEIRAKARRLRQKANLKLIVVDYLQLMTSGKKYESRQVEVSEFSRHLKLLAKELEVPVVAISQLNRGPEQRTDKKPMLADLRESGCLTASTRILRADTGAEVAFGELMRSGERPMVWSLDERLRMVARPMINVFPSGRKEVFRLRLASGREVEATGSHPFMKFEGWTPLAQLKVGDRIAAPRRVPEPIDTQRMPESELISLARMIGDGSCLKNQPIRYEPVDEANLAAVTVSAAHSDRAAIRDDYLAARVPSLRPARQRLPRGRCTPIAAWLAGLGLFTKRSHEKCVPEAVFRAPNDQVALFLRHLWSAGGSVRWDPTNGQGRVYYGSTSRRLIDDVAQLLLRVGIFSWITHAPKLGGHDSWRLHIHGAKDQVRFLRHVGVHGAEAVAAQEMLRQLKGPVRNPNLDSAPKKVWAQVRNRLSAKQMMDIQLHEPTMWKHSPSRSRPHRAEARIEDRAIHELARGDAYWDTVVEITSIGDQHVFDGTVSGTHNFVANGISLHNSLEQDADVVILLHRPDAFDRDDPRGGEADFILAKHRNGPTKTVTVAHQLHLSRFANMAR

Protein RecA = target: T7, Protein RecA (Mycobacterium tuberculosis, UniProt P9WHJ3); assay: Fluorescence Cell-Free Homogeneous Dose Retest to Identify Inhibitors of RecA-Intein Splicing Activity. [Related pubchem assays (depositor defined):AID2097, AID2223, AID489010, AID492950]; format: functional
T7 sequence (P9WHJ3 whole entry): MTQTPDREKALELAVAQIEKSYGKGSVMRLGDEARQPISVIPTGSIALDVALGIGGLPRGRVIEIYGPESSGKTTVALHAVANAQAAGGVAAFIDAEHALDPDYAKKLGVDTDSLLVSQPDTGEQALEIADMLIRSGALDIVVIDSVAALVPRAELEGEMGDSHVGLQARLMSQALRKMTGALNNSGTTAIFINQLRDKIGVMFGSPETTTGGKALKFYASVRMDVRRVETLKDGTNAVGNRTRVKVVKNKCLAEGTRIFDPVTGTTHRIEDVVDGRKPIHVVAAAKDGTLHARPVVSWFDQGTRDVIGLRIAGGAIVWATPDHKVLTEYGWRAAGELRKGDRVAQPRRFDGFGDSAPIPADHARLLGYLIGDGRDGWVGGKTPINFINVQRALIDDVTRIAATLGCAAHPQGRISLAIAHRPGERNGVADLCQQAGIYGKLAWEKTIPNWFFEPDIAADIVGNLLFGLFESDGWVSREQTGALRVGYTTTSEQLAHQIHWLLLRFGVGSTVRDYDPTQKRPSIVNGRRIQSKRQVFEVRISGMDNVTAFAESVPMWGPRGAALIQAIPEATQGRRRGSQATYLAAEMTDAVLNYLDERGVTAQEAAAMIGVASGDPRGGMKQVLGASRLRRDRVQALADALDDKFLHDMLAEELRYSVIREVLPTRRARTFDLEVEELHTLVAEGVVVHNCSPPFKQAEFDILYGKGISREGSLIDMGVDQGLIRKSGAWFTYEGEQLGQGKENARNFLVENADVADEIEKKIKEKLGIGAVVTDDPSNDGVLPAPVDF

[13] = A549 cell cytotoxicity, dose response, cytotoxicity control, plate reader, cherry-pick, antagonist series (AID 743412); format: functional, cell-based

Structure (SMILES) | IC50 [1] | EC50 [2] | IC50 [3] | IC50 (Fatty acid synthase [4]) | IC50 (Fatty acid synthase [5]) | also measured
COc1ccc(C2N(Cc3ccccc3)CC(=O)N2/N=C(\C)c2ccccc2)cc1 (configuration not stated) | 13.8 µM (active) | > 53 µM (inactive) | 4.93 µM (active) | – | – | –
COC(=O)C1=CN(Cc2ccc(OC)cc2)C=C(C(=O)OC)C1c1cccs1 | 4.21 µM (active) | > 53 µM (inactive) | > 20 µM (inactive) | – | – | –
CC1CCc2nc(NC(=O)CN3CCN(c4ccc(F)cc4)CC3)sc2C1 (configuration not stated) | – | – | – | 2.04 µM (active) | 1.81 µM (active) | –
CN(C(=S)NC(=O)c1ccccc1)c1c(N)n(Cc2ccccc2)c(=O)[nH]c1=O | – | – | – | – | – | IC50 [6]: > 66 µM (inactive); IC50 [7]: > 66 µM (inactive)
O=C(N/C(=C/C=C/c1ccccc1)C(=O)N1CCCCC1)c1ccc([N+](=O)[O-])cc1 | – | – | – | 0.295 µM (active) | 0.258 µM (active) | –
COC(=O)c1ccc(Oc2nc(C(N)=O)cc(-c3ccccc3)n2)cc1 | – | – | – | – | – | EC50 [8]: 29.9 µM (active)
Cc1ccc(NC(=O)Cn2ncn3c(cc4ccccc43)c2=O)cc1F | 9.94 µM (active) | > 53 µM (inactive) | 7.27 µM (active) | – | – | –
C=CCC[C@@H](Cc1ccc(F)cc1)C(=O)OC[C@H](Cc1c[nH]c2ccccc12)NC(=O)[C@H](CC=C)CC(=O)NCCO | – | – | – | 10.9 µM (active) | 6.03 µM (active) | –
CC(C)OCCCNC(=O)c1sc(=S)n(C)c1N | – | – | – | – | – | IC50 [6]: > 66 µM (inactive); IC50 [7]: > 66 µM (inactive)
c1ccc2sc(SCc3ccc(-c4nnco4)cc3)nc2c1 | – | – | – | – | – | CC50 [9]: > 40 µM (active); IC50 (cells): 27.4 µM (active); IC50 (Protein skinhead-1): 32.7 µM (active)
Nc1ccc2nc3c(c(Cl)c2c1)CCCC3 | – | – | – | – | – | CC50 [9]: 2.79 µM (active); IC50 (cells): 13.7 µM (active)
Cc1ccc(-c2cc(NC(=O)CCl)n(-c3ccccc3)n2)cc1 | – | – | – | – | – | AC50 [10]: 5.24 µM (active); EC50 [11]: 9.36 µM (active); AC50 [12]: 16.2 µM (active); EC50 (Protein RecA): 5.68 µM (active)
Cc1ccc(NC(=O)c2cc([N+](=O)[O-])ccc2N2CCOCC2)cc1C | – | – | – | 4.24 µM (active) | 2.81 µM (active) | –
CCOC(=O)C(CCCCOc1ccc([N+](=O)[O-])cc1)C(=O)OCC | 25.9 µM (active) | > 53 µM (inactive) | > 20 µM (inactive) | – | – | –
COc1ccc2c(c1)C(=O)N1[C@H]3c4cc(Cl)ccc4OC[C@@H]3[C@H](c3ccccc3)[C@]1(C)C(=O)N2 | – | – | – | 16.5 µM (active) | 18.8 µM (active) | –
COc1ccc(NC(=O)CCCCC(=O)Nc2ccc(OC)cc2OC)c(OC)c1 | < 0.368 µM (active) | > 53 µM (inactive) | > 20 µM (inactive) | – | – | –
C[C@@H]1CN([C@H](C)CO)C(=O)c2cc(NC(=O)Nc3ccc(F)cc3)ccc2O[C@@H](C)CCCCO[C@H]1CN(C)S(=O)(=O)c1cccs1 | – | – | – | 5.17 µM (active) | 3.69 µM (active) | –
O=C(OCc1cccc(C(F)(F)F)c1)c1cc([N+](=O)[O-])ccc1N1CCOCC1 | – | – | – | 7.84 µM (active) | 7.24 µM (active) | –
CCCCCCCCCCCC(=O)NC(Cc1ccc(OC)c([N+](=O)[O-])c1)C(=O)O (configuration not stated) | 11.6 µM (active) | > 53 µM (inactive) | > 20 µM (inactive) | – | – | –
Cc1ccc(S(=O)(=O)N(C)C[C@H]2Oc3cc(Br)ccc3S(=O)(=O)N([C@H](C)CO)C[C@H]2C)cc1 | – | – | – | – | – | AC50 [13]: 33.6 µM (active)
